Tests used:
[1] = target: T1, human recombinant histamine H1 receptor (Homo sapiens, UniProt P35367); test: Histamine H1 radioligand binding ([3H]Pyrilamine); conditions: compound at 0.1 μM; 1.2 nM [3H]Pyrilamine; CHO K1 cells; read-out: Histamine H1 Binding (0.1 μM), percentage inhibition
T1 construct: expressed in transfected cells; host or cells: CHO-K1
Description: To evaluate in radioligand binding assays the activity of compounds of the invention, human recombinant histamine H1 receptor expressed in Chinese hamster ovary (CHO) K1 cells (De Backer, M. et al, Biochem. Biophys. Res. Comm. 197(3):1601, 1993) in a modified Tris-HCl buffer (50 mM Tris-HCl, pH 7.4, 2 mM MgCl2, 100 mM NaCl, 250 mM Sucrose) was used. Compounds of the invention were incubated with 1.2 nM [^3H]Pyrilamine for 180 min at 25° C. Non-specific binding was estimated in the presence of 1 μM Pyrilamine. Receptor proteins were filtered and washed, the filters were then counted to determine [^3H]Pyrilamine specifically bound. Compounds were screened at 1 μM or lower, using 1% DMSO as vehicle. Biochemical assay results are presented as the percent inhibition of specific binding in Table 2.

[2] = target: T2, human recombinant serotonin (5-Hydroxytryptamine) 5-HT2A receptor (Homo sapiens, UniProt P28223); test: Serotonin 5-HT2A radioligand binding ([3H]Ketanserin); conditions: compound at 0.1 μM; CHO K1 cells; read-out: Percentage inhibition of ligand binding, Serotonin 5-HT2A
T2 construct: expressed in transfected cells; host or cells: CHO-K1
T2 sequence (P28223 whole entry): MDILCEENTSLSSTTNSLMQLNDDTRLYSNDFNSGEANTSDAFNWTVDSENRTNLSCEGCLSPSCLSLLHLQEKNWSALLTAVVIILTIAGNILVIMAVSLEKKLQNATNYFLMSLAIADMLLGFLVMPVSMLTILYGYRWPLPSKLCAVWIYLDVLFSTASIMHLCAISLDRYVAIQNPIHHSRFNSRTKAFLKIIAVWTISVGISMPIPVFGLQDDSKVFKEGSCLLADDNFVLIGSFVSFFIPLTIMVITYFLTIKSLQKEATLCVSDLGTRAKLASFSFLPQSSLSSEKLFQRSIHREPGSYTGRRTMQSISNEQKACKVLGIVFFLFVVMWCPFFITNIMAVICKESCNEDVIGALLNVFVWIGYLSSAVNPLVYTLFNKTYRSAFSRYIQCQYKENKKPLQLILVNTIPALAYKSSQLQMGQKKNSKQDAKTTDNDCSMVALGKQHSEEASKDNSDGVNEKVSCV
Description: To evaluate in radioligand binding assays the activity of compounds of the invention, human recombinant serotonin (5-Hydroxytryptamine) 5-HT2A receptor expressed in Chinese hamster ovary (CHO) K1 cells (Bonhaus, D. et al, Br. J. Pharmacol. 115:622, 1995; Saucier, C. et al, J. Neurochem. 68:1998, 1997) in a 50 mM Tris-HCl buffer, pH 7.4, was used. Compounds of the invention were incubated with 0.5 nM [^3H]Ketanserin for 60 min at 25° C. Non-specific binding was estimated in the presence of 1 μM Mianserin. Receptor proteins were filtered and washed, the filters were then counted to determine [^3H]Ketanserin specifically bound. Compounds were screened at 1 μM or lower, using 1% DMSO as vehicle. Biochemical assay results are presented as the percent inhibition of specific binding in Table 4.

[3] = target: T3, human recombinant serotonin (5-Hydroxytryptamine) 5-HT2C receptor (Homo sapiens, UniProt P28335); test: Serotonin 5-HT2C radioligand binding ([3H]Mesulergine); conditions: compound at 0.1 μM; CHO K1 cells; read-out: Percentage inhibition of ligand binding, Serotonin 5-HT2C
T3 construct: expressed in transfected cells; host or cells: CHO-K1
T3 sequence (P28335 33-458): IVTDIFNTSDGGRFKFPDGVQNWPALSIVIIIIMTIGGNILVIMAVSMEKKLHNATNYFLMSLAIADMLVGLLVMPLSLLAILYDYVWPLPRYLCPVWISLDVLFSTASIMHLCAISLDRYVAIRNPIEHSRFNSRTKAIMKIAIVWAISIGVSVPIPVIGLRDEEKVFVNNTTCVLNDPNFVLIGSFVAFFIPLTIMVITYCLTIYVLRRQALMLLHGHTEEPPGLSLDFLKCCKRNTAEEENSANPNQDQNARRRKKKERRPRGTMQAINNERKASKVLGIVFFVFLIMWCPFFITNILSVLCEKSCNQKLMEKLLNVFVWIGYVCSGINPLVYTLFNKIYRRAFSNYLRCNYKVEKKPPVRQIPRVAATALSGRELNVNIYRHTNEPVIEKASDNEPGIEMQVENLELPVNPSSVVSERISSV
Description: To evaluate in radioligand binding assays the activity of compounds of the invention, human recombinant serotonin (5-Hydroxytryptamine) 5-HT2C receptor expressed in Chinese hamster ovary (CHO) K1 cells (Wolf, W. et al, J. Neurochem. 69:1449, 1997) in a modified Tris-HCl buffer (50 mM Tris-HCl, pH 7.4, 0.1% Ascorbic Acid, 10 μM Pargyline) was used. Compounds of the invention were incubated with 1 nM [^3H]Mesulergine for 60 min at 25° C. Non-specific binding was estimated in the presence of 1 μM Mianserin. Receptor proteins were filtered and washed, the filters were then counted to determine [^3H]Mesulergine specifically bound. Compounds were screened at 1 μM or lower, using 1% DMSO as vehicle. Biochemical assay results are presented as the percent inhibition of specific binding in Table 4.

[4] = target: T4, human recombinant serotonin (5-Hydroxytryptamine) 5-HT5A receptor (Homo sapiens, UniProt P47898); test: Serotonin 5-HT5A radioligand binding ([3H]LSD); conditions: compound at 0.1 μM; CHO K1 cells; read-out: Percentage inhibition of ligand binding, Serotonin 5-HT5A
T4 construct: expressed in transfected cells; host or cells: CHO-K1
T4 sequence (P47898 whole entry): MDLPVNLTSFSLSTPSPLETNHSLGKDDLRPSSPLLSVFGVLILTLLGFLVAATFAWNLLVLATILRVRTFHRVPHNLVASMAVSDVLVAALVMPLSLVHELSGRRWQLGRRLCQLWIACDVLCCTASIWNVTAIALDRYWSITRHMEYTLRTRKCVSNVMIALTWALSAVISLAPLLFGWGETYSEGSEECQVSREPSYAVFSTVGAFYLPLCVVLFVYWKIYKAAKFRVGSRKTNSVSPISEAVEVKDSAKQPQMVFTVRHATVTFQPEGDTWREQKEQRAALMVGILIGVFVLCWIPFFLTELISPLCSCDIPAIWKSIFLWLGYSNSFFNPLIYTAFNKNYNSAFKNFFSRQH
Description: To evaluate in radioligand binding assays the activity of compounds of the invention, human recombinant serotonin (5-Hydroxytryptamine) 5-HT5A receptor expressed in Chinese hamster ovary (CHO) K1 cells (Rees, S. et al, FEBS Lett. 355:242, 1994) in a modified Tris-HCl buffer (50 mM Tris-HCl, pH 7.4, 10 mM MgCl2, 0.5 mM EDTA) was used. Compounds of the invention were incubated with 1.7 nM [^3H]Lysergic acid diethylamide (LSD) for 60 min at 37° C. Non-specific binding was estimated in the presence of 100 μM Serotonin (5-HT). Receptor proteins were filtered and washed, the filters were counted to determine [^3H]LSD specifically bound. Compounds were screened at 1 μM or lower, using 1% DMSO as vehicle. Biochemical assay results are presented as the percent inhibition of specific binding in Table 4.

[5] = target: T5, human recombinant serotonin (5-Hydroxytryptamine) 5-HT7 receptor (Homo sapiens, UniProt P34969); test: Serotonin 5-HT7 radioligand binding ([3H]LSD); conditions: compound at 0.1 μM; CHO cells; read-out: Percentage inhibition of ligand binding, Serotonin 5-HT7
T5 construct: expressed in transfected cells; host or cells: CHO
T5 sequence (P34969 whole entry): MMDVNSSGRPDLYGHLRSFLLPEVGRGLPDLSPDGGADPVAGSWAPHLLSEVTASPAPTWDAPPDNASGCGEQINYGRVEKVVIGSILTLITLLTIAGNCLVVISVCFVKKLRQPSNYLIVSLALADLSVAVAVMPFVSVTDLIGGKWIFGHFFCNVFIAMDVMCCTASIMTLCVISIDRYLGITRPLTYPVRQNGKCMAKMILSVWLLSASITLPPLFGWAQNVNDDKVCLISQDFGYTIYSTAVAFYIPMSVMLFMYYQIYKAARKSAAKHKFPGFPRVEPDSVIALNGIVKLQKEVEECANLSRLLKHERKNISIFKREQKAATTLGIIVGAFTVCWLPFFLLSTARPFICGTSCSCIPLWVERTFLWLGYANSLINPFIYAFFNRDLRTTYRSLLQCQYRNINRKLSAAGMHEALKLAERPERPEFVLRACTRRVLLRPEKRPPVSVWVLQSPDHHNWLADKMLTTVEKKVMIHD
Description: To evaluate in radioligand binding assays the activity of compounds of the invention, human recombinant serotonin (5-Hydroxytryptamine) 5-HT7 receptor expressed in Chinese hamster ovary (CHO) cells (Roth, B. et al, J. Pharmacol. Exp. Ther. 268:1403, 1994; Shen, Y. et al, J. Biol. Chem. 268:18200, 1993) in a modified Tris-HCl buffer (50 mM Tris-HCl, pH 7.4, 10 mM MgCl2, 0.5 mM EDTA) was used. Compounds of invention were incubated with 5.5 nM [^3H] Lysergic acid diethylamide (LSD) for 2 h at 25° C. Non-specific binding was estimated in the presence of 10 μM Serotonin (5-HT). Receptor proteins were filtered and washed, the filters were then counted to determine [^3H]LSD specifically bound. Compounds were screened at 1 μM or lower, using 1% DMSO as vehicle. Biochemical assay results are presented as the percent inhibition of specific binding in Table 4.

T1 sequence (P35367 whole entry): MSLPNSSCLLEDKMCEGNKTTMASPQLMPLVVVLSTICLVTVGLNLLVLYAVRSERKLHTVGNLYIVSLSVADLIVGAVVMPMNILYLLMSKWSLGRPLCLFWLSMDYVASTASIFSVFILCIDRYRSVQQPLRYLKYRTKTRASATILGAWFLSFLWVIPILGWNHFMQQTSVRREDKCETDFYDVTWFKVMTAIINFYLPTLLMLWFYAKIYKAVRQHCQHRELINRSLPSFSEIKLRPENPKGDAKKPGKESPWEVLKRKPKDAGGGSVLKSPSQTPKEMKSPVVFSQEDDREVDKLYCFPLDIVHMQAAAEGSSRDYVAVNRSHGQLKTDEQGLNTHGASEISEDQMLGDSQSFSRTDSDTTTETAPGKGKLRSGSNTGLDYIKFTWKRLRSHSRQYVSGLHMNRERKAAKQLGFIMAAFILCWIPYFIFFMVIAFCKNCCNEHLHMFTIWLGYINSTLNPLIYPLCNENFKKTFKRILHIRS

Compound | inhibition at 0.1 µM [1] | inhibition at 0.1 µM [2] | inhibition at 0.1 µM [3] | inhibition at 0.1 µM [4] | inhibition at 0.1 µM [5]
Cc1ccc2c(c1)c1c3n2CC(c2ccncc2)=CCC3(C)CN(C)C1 (stereo not drawn) [Compound 11, 2,3a,10-trimethyl-6-pyridin-4-yl-1,2,3,3a,4,7-hexahydro-2,7a-diaza-cyclohepta[jk]fluorene] | 2% | 10% | 7% | 9% | -8%
Cc1ccc2c(c1)c1c3n2C(c2ccccc2)CCC3(C)CN(C)C1 (stereo not drawn) [Compound 12, 2,3a,10-trimethyl-6-phenyl-2,3,3a,4,5,6-hexahydro-1H-indolo[3,2,1-ij][1,6]naphthyridine] | 20% | 12% | 11% | -21% | -17%
Cc1ccc2c(c1)c1c3n2C(c2ccccc2)=CCC3(C)CN(C)C1 (stereo not drawn) [Compound 10, 2,3a,10-trimethyl-6-phenyl-2,3,3a,4-tetrahydro-1H-indolo[3,2,1-ij][1,6]naphthyridine] | 3% | 13% | 17% | -8% | 12%
